The results in this text go back to patent US11072616B2, “Cyclic peptides targeting alpha-4-beta-7 integrin” (Zealand Pharma A/S, priority 2015, dated 2021).

The assay deals with T1, integrin α4β7 (Homo sapiens, UniProt P13612+P26010).
T1 sequence (P13612 34-977 limits assumed): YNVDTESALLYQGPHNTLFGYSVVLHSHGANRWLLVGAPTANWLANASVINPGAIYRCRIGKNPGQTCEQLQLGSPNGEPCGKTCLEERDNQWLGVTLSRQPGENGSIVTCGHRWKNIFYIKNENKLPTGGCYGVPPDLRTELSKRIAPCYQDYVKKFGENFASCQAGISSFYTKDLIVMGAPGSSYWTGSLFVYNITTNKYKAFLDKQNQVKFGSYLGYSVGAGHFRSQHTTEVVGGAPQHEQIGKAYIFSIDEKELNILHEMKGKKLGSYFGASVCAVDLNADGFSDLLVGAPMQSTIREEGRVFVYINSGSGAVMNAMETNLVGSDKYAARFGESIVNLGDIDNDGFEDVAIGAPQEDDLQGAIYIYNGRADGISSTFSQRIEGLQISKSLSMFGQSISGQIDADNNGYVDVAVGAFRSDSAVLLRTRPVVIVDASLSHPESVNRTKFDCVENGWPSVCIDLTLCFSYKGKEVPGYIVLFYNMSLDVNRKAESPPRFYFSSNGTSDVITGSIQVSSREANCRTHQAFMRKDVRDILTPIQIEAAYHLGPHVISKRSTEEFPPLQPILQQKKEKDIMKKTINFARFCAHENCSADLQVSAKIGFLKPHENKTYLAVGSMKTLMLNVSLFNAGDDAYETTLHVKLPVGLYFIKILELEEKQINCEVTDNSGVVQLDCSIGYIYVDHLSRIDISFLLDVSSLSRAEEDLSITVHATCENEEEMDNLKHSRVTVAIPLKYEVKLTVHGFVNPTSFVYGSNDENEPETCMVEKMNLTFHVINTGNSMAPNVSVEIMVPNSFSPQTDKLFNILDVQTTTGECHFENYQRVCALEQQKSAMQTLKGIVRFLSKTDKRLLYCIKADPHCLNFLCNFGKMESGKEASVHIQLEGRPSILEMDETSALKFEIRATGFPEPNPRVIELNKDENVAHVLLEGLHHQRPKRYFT
T1 sequence (P26010 20-723 limits assumed): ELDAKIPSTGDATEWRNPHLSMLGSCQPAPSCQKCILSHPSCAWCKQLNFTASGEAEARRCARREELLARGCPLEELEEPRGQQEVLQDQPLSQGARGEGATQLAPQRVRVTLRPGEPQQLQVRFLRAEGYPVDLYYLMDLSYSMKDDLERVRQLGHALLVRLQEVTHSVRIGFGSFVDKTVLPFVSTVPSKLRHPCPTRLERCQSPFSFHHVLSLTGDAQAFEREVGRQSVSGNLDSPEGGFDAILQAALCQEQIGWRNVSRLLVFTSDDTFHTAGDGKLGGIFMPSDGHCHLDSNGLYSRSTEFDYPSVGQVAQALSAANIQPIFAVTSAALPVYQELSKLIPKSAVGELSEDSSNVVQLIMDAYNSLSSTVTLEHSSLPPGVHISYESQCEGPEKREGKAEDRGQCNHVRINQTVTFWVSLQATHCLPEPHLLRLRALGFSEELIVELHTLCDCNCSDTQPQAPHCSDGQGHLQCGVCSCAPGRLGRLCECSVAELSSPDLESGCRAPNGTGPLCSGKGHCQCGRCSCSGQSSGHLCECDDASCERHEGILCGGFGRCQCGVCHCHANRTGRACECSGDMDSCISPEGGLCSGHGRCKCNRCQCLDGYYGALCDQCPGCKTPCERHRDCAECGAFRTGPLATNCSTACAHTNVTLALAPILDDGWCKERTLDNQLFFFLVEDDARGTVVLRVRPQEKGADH
The assay can be described thus: Integrin α4β7—MAdCAM-1 competition assay (ELISA). It counts as binding. Conditions: ratio a4b1 ELISA IC50 / a4b7 ELISA IC50. As for the experimental part: Integrin α4β7—MAdCAM-1 Competition Assay
The plate was incubated at 4° C. overnight. […] The plate was then incubated for 1 hour at room temperature. The plate was washed three times with wash buffer (50 mM Tris, 100 mM NaCl, 1 mM MnCl2, 0.05% Tween). To each well, 50 μl of compound diluted in assay buffer was added by transfer from a compound serial dilution plate. […] The plate was incubated at room temperature with shaking for 2 hours to reach binding equilibrium. Then the plate was washed three times in wash buffer and 100 μl anti-human IgG Fc specific-horseradish peroxidase (HRP) (Abcam, Ab97225) diluted at 1:2000 in assay buffer was added to each well. The plate was incubated at room temperature for 1 hour under agitation. The plates were then washed three times and 100 μl of 1,3′,5,5′-tetramethylbenxidie (TMB) was then added to each well.

Structures are written as SMILES.

`CC(C)C[C@@H]1NC(=O)[C@@H](CCCCN)NC(=O)[C@H](Cc2cccc3ccccc23)NC(=O)[C@@H]2CCCN2[C@H](C(=O)NC(C)(C)C)[C@H](C)NC(=O)[C@H]([C@@H](C)O)NC(=O)[C@H](CC(=O)O)NC1=O` [Compound 120]: the “Selectivity ELISA” value turned out to be 19.1.
Consider `CC(C)C[C@@H]1NC(=O)[C@@H](CCCCN)NC(=O)[C@H](Cc2ccc(O)cc2)NC(=O)[C@@H]2CCCN2[C@H](C(=O)NC(C)(C)C)[C@H](C)NC(=O)[C@H]([C@@H](C)O)N(C)C(=O)[C@H](CC(=O)O)NC1=O` [Compound 121], for which the “Selectivity ELISA” value stood at 11.4.
As for `COc1ccc(C[C@@H]2NC(=O)[C@@H]3CCCN3[C@H](C(=O)NC(C)(C)C)[C@H](C)NC(=O)[C@H]([C@@H](C)O)NC(=O)[C@H](CC(=O)O)NC(=O)[C@H](CC(C)C)NC(=O)[C@H]3CCCN3C2=O)cc1OC` [Compound 127], the “Selectivity ELISA” value is listed as 7.8.
With `CC(C)C[C@@H]1NC(=O)[C@H]2CCCN2C(=O)[C@H](Cc2cc(F)c(F)c(F)c2)NC(=O)[C@@H]2CCCN2[C@H](C(=O)NC(C)(C)C)[C@H](C)NC(=O)[C@H]([C@@H](C)O)NC(=O)[C@H](CC(=O)O)NC1=O` [Compound 128], the “Selectivity ELISA” value turned out to be 11.4.
`CC(C)C[C@@H]1NC(=O)[C@H]2CCCN2C(=O)[C@H](Cc2cc(Br)c(O)c(Br)c2)NC(=O)[C@@H]2CCCN2[C@H](C(=O)NC(C)(C)C)[C@H](C)NC(=O)[C@H]([C@@H](C)O)NC(=O)[C@H](CC(=O)O)NC1=O` [Compound 129]: the “Selectivity ELISA” value is given as 9.7.
Regarding `CC(C)C[C@@H]1NC(=O)[C@H]2CCCCN2C(=O)[C@H](Cc2cscn2)NC(=O)[C@@H]2CCCN2[C@H](C(=O)NC(C)(C)C)[C@H](C)NC(=O)[C@H]([C@@H](C)O)NC(=O)[C@H](CC(=O)O)NC1=O` [Compound 131], the “Selectivity ELISA” value was 3.1.
Regarding `CC(C)C[C@@H]1NC(=O)[C@H]2CCCCN2C(=O)[C@H](Cc2ccccc2I)NC(=O)[C@@H]2CCCN2[C@H](C(=O)NC(C)(C)C)[C@H](C)NC(=O)[C@H]([C@@H](C)O)NC(=O)[C@H](CC(=O)O)NC1=O` [Compound 133], the “Selectivity ELISA” value is given as 5.3.
Consider `CC(C)C[C@@H]1NC(=O)[C@H]2CCCCN2C(=O)[C@H](Cc2ccccc2-c2ccccc2)NC(=O)[C@@H]2CCCN2[C@H](C(=O)NC(C)(C)C)[C@H](C)NC(=O)[C@H]([C@@H](C)O)NC(=O)[C@H](CC(=O)O)NC1=O` [Compound 134], for which the “Selectivity ELISA” value was determined as 7.6.
For the compound `COc1cccc(-c2ccccc2C[C@@H]2NC(=O)[C@@H]3CCCN3[C@H](C(=O)NC(C)(C)C)[C@H](C)NC(=O)[C@H]([C@@H](C)O)NC(=O)[C@H](CC(=O)O)NC(=O)[C@H](CC(C)C)NC(=O)[C@H]3CCCCN3C2=O)c1` [Compound 136], the “Selectivity ELISA” value came out at 6.6.
Take `COc1ccc(-c2ccccc2C[C@@H]2NC(=O)[C@@H]3CCCN3[C@H](C(=O)NC(C)(C)C)[C@H](C)NC(=O)[C@H]([C@@H](C)O)NC(=O)[C@H](CC(=O)O)NC(=O)[C@H](CC(C)C)NC(=O)[C@H]3CCCCN3C2=O)cc1` [Compound 137]: the “Selectivity ELISA” value is 7.8.
Consider `CC(C)C[C@@H]1NC(=O)[C@H]2CCCCN2C(=O)[C@H](Cc2ccc(-c3ccccc3)cc2)NC(=O)[C@@H]2CCCN2[C@H](C(=O)NC(C)(C)C)[C@H](C)NC(=O)[C@H]([C@@H](C)O)NC(=O)[C@H](CC(=O)O)NC1=O` [Compound 138], for which the “Selectivity ELISA” value was determined as 5.0.
With `CC(C)C[C@@H]1NC(=O)[C@@H]2C[C@@H](O)CN2C(=O)[C@H](Cc2ccc(O)cc2)NC(=O)[C@@H]2CCCN2[C@H](C(=O)NC(C)(C)C)[C@H](C)NC(=O)[C@H]([C@@H](C)O)NC(=O)[C@H](CC(=O)O)NC1=O` [Compound 139], the “Selectivity ELISA” value was found to be 0.7.
Consider `CC(C)C[C@@H]1NC(=O)[C@H]2C[C@H](O)CN2C(=O)[C@H](Cc2ccc(O)cc2)NC(=O)[C@@H]2CCCN2[C@H](C(=O)NC(C)(C)C)[C@H](C)NC(=O)[C@H]([C@@H](C)O)NC(=O)[C@H](CC(=O)O)NC1=O` [Compound 140], for which the “Selectivity ELISA” value came to 9.6.
On to `CC(C)C[C@@H]1NC(=O)[C@H]2C[C@@H](O)CN2C(=O)[C@H](Cc2ccc(O)cc2)NC(=O)[C@@H]2CCCN2[C@H](C(=O)NC(C)(C)C)[C@H](C)NC(=O)[C@H]([C@@H](C)O)NC(=O)[C@H](CC(=O)O)NC1=O` [Compound 141], for which the “Selectivity ELISA” value amounted to 2.0.
Take `CC(C)C[C@@H]1NC(=O)[C@H]2CCCCN2C(=O)[C@H](Cc2cccc3ccccc23)NC(=O)[C@@H]2CCCN2[C@H](C(=O)NC(C)(C)C)[C@H](C)NC(=O)[C@H]([C@@H](C)O)NC(=O)[C@H](CC(=O)O)NC1=O` [Compound 143]: the “Selectivity ELISA” value is given as 2.1.
As for `C[C@@H]1NC(=O)[C@H]([C@@H](C)O)NC(=O)[C@H](CC(=O)O)NC(=O)[C@H](CC(C)(C)C)NC(=O)[C@H]2CCCCN2C(=O)[C@H](Cc2ccc(O)cc2)NC(=O)[C@@H]2CCCN2[C@@H]1C(=O)NC(C)(C)C` [Compound 150], the “Selectivity ELISA” value is listed as 8.2.
On to `CC(C)C[C@@H]1NC(=O)[C@H]2C[C@H](O)CN2C(=O)[C@H](Cc2cscn2)NC(=O)[C@@H]2CCCN2[C@H](C(=O)NC(C)(C)C)[C@H](C)NC(=O)[C@H]([C@@H](C)O)NC(=O)[C@H](CC(=O)O)NC1=O` [Compound 151], for which the “Selectivity ELISA” value worked out at 4.1.
Turning to `CC(C)C[C@@H]1NC(=O)[C@H]2C[C@H](O)CN2C(=O)[C@H](Cc2ccc(CN)cc2)NC(=O)[C@@H]2CCCN2[C@H](C(=O)NC(C)(C)C)[C@H](C)NC(=O)[C@H]([C@@H](C)O)NC(=O)[C@H](CC(=O)O)NC1=O` [Compound 152], the “Selectivity ELISA” value is listed as 13.2.
Consider `CC[C@H](C)[C@@H]1NC(=O)[C@H](CC(=O)O)NC(=O)[C@H](CC(C)C)NC(=O)[C@@H](CCCCN)N(C)C(=O)[C@H](Cc2ccc(O)cc2)NC(=O)[C@@H]2CCCN2[C@H](C(=O)NC(C)(C)C)[C@H](C)NC1=O` [Compound 154], for which the “Selectivity ELISA” value came to 22.8.
Regarding `CC(C)C[C@@H]1NC(=O)[C@@H](CCCNC(=N)N)N(C)C(=O)[C@H](Cc2ccc(O)cc2)NC(=O)[C@@H]2CCCN2[C@H](C(=O)NC(C)(C)C)[C@H](C)NC(=O)[C@H]([C@@H](C)O)NC(=O)[C@H](CC(=O)O)NC1=O` [Compound 157], the “Selectivity ELISA” value is 55.3.
Take `C=CCOc1ccc(C[C@@H]2NC(=O)[C@@H]3CCCN3[C@H](C(=O)NC(C)(C)C)[C@H](C)NC(=O)[C@H]([C@@H](C)O)NC(=O)[C@H](CC(=O)O)NC(=O)[C@H](CC(C)C)NC(=O)CNC2=O)cc1` [Compound 163]: the “Selectivity ELISA” value came to 11.0.
Take `CC(C)C[C@@H]1NC(=O)CNC(=O)[C@H](Cc2ccc(CN)cc2)NC(=O)[C@@H]2CCCN2[C@H](C(=O)NC(C)(C)C)[C@H](C)NC(=O)[C@H]([C@@H](C)O)NC(=O)[C@H](CC(=O)O)NC1=O` [Compound 165]: the “Selectivity ELISA” value worked out at 22.8.
On to `C=CCOc1ccc(C[C@@H]2NC(=O)[C@@H]3CCCN3[C@H](C(=O)NC(C)(C)C)[C@H](C)NC(=O)[C@H]([C@@H](C)O)NC(=O)[C@H](CC(=O)O)NC(=O)[C@H](CC(C)C)NC(=O)[C@@H](C(C)C)NC2=O)cc1` [Compound 166], for which the “Selectivity ELISA” value turned out to be 7.7.
